# Legend:
# [1] = test system: phospho-STAT3 (Ser-727); test: Western blot of phospho-STAT3 (Ser-727) in HepG2; type: cell-based, human; conditions: HepG2, 10 μMol/L CIMO
# Protocol: FIG. 2 depicts the suppression of phospho-STAT3 by compound 1 (CIMO) in a dose dependent manner [A]. HepG2 cells (5×10^5/mL) are treated with the indicated concentrations of CIMO for 6 hours, after which whole-cell extracts are prepared and resolved on SDS-PAGE gel, electrotransferred onto nitrocellulose membrane, and probed for phospho-STAT3. The same blot is stripped and reprobed with STAT3 antibody to verify equal protein loading. […] HepG2 cells (5×10^5/mL) are treated with the indicated concentrations of AG490 for about 6 hours, after which Western Blotting is done as described for [A]. [C] depicts the suppression of phospho-STAT3 levels by Compound 1 (CIMO) in a time-dependent manner. HepG2 cells (5×10^5/mL) are treated with 10 μMol/L CIMO for the indicated times, after which Western blotting is done as described for [A]. [D] depicts that compound 1 (CIMO) has no effect on phospho-STAT3 (Ser-727) and STAT3 protein expression. […] HepG2 cells (1×10^5/mL) are incubated with or without 10 μMol/L CIMO for about 6 hours and then analyzed for the intracellular distribution of STAT3 by immunocytochemistry. The same slides are counterstained for nuclei with Hoechst (50 ng/mL) for about 5 minutes and analyzed under an fluorescencemicroscope. […]
# [2] = test system: JAK1; test: IL-6 induced JAK1 phosphorylation in Hep3B; type: cell-based; conditions: 10 μMol/L CIMO, IL-6 10 ng/mL
# Protocol: FIG. 3 depicts comparative study of cell viability between STAT3-siRNA transfected and Compound 1 (CIMO) treated HepG2 cells [A]. Correspondingly, Western Blot analysis is used to assess the levels of phospho-STAT3 and STAT3 in HepG2 cells with siRNA-mediated depletion STAT3 expression and on exposure to 4 μM CIMO. Whole cell extract is prepared and resolved on SDS-PAGE gel, electrotransferred onto nitrocellulose membrane, and probed for phospho-STAT3 and the same blot is stripped and reprobed with STAT3 antibody and Beta actin to verify equal protein loading. [B] showcases the modulation of STAT3 mediated transcription, α2-M promoter activity by Compound 1 (CIMO) in HepG2 cells. [C] depicts the inhibition of IL-6-induced phosphorylation of STAT3, JAK1 and JAK2 by Compound 1 (CIMO). Hep3B cells (5×10^5/mL) are treated with 10 μMol/L CIMO for the indicated times and then stimulated with IL-6 (10 ng/mL) for about 15 minutes. Whole-cell extracts are then prepared, resolved on SDS-PAGE gel, electrotransferred onto nitrocellulose membrane and probed with phospho-STAT3, phospho-JAK1 and phospho-JAK2 antibodies. The same blot is stripped and reprobed with STAT3, JAK1 and JAK2 antibody to verify equal protein loading. [D] and [E], showcases the suppression of STAT3 regulated gene products involved in cell proliferation and survival by Compound 1 (CIMO). […]
# [3] = test system: AGS (gastric cancer cell line); test: MTT anti-proliferative assay, AGS; type: cell-based; conditions: Homo sapiens
# Protocol: (§1) The anti-proliferative activity of Formula I compounds are studied on HepG2 cells using MTT assay. Briefly, the cells (2.5×10^4/ml) are incubated in triplicate in a 96-well plate in the presence or absence of different concentrations of compounds in a final volume of 0.2 ml up to 72 hours at 37° C. Thereafter, 20 μl MTT solution (5 mg/ml in PBS) is added to each well. After 2 hours of incubation at 37° C., 0.1 ml lysis buffer (20% SDS, 50% dimethyl-formamide) is added; incubation is continued overnight at 37° C.; and the optical density (OD) at 570 nm is measured by Tecan plate reader.
# (§2) Additionally, Compound 1 is tested on a panel of six cell lines including Hep3B, PLC/PRF5, AGS (gastric cancer cell line), DU145 (prostrate cancer cell line), MDA MB231 (breast cancer cell line) and CAL27 (head and neck cancer cell line) cells.
# [4] = test system: DU145 (prostrate cancer cell line); test: MTT anti-proliferative assay, DU145; type: cell-based; conditions: Homo sapiens, DU-145
# Protocol: as §1, §2
# [5] = test system: MDA MB231 (breast cancer cell line); test: MTT anti-proliferative assay, MDA MB231; type: cell-based; conditions: Homo sapiens, MDA-MB-231
# Protocol: as §1, §2
compound,measurement,setting,value
COc1ccc(C2CNC(c3cn(Cc4ccc(-c5ccccc5C#N)cc4)c4ccccc34)OC23CCCCC3)cc1 (centres unmarked) [Compound 1],phosphorylation of S727 of STAT3,[1],no effect
same,IL-6 induced phosphorylation of JAK1,[2],substantially down-regulates
same,IC50,[3],36.9 µM
same,IC50,[4],38.8 µM
same,IC50,[5],24.3 µM
